Tested on: pyramidal gap junctions
Test: Patch clamp recordings of electrically coupled pyramidal pairs in cortical slices, bath-applied soluble Aβ
Format: cell-based, rats and ferrets
Details: for washout time to restore gap junctional activity (reversibility): peptide washout

Row | Substance | inhibition of pyramidal gap junction activity, compared between species | washout time to restore gap junctional activity (reversibility) [min] | reduction of postjunctional responses (1 μM bath-applied for 10 minutes, FIG. 2) [%] | effect on presynaptic action potentials (application of Aβ1-40, FIG. 2)
1 | β-Amyloid [25-35] (GSNKGAIIGLM) [Aβ25-35] | same effect as Aβ 1-40 and Aβ 1-42 | 10 | – | –
2 | β-Amyloid [Aβ1-40, β-Amyloid [1-40]] | – | 10 | ~50 | not influenced
